From patent US4547357A, “N-Hydroxyethylated 2,4,6-triiodoaminoisophthalic acid bistrihydroxybutylamides, their preparation and x-ray contrast media containing them” (priority 1981, dated 1985)
Read-outs that look alike come from different tables or passages of the source.

Experiments:
Rat [1] = assay: Neural compatibility, rat, pericerebral ED50; format: in vivo
Source text: (§1) In Table I, the following compounds are compared with respect to neural and general compatibility: […]

Mouse = assay: General compatibility, mouse LD50; format: in vivo; settings: for Mouse LD50: General compatibility
Source text: as §1

[2] = Viscosity at 37° C., 300 mg I/ml; format: physicochemical
Solubility in water = format: physicochemical; settings: in 100 ml of water; read-out: Solubility (100 ml of water dissolves)
Rat [3] = assay: Neural compatibility, rat, intracisternal ED50; format: in vivo
Source text: as §1

Iodine content = format: physicochemical
[4] = Number of hydroxy groups per molecule; format: physicochemical
[5] = clinical experience; cited from earlier work
Rat [6] = assay: Neural compatibility, comparison in words; format: in vivo; settings: data of Table I
Source text: as §1

Structure (SMILES)	solubility (Solubility in water)	Rat, pericerebral ED50 (Rat [1])	Rat, intracisternal ED50 (Rat [3])	Mouse LD50 (Mouse)	Iodine content (Iodine content)	Number of hydroxy groups/molecule [4]	Viscosity [2]	side effects (in words) [5]	further results
CC(=O)N(CCO)c1c(I)c(C(=O)NC(CO)C(O)CO)c(I)c(C(=O)NC(CO)C(O)CO)c1I (stereo not drawn) [Example 2, 5-[N-(2-Hydroxyethyl)acetylamino]-2,4,6-triiodoisophthalic acid bis(erythro-1,3,4-trihydroxybut-2-yl)diamide]	> 700 mg/mL	–	–	–	–	–	–	–	Rat, pericerebral ED50 (Rat [1]; listed as A2): 188 mg I/kg; Mouse LD50 (Mouse; listed as A2): 22 g I/kg; Viscosity ([2]; listed as A2): 6.2 mPa · s
CC(=O)N(CCO)c1c(I)c(C(=O)NCC(O)C(O)CO)c(I)c(C(=O)NCC(O)C(O)CO)c1I (centres unmarked) [Example 4, 5-[N-(2-Hydroxyethyl)acetylamino]-2,4,6-triiodo-isophthalic Acid Bis(2,3,4-trihydroxybut-1-yl)-diamide]	> 700 mg/mL	–	–	–	–	–	–	–	–
CC(=O)N(CCO)c1c(I)c(C(=O)NC(CO)(CO)CO)c(I)c(C(=O)NC(CO)(CO)CO)c1I [Example 3, 5-[N-(2-Hydroxyethyl)acetylamino]-2,4,6-triiodo-isophthalic Acid Bis(1,1,1-trishydroxymethylmethyl)diamide]	> 700 mg/mL	–	–	–	–	–	–	–	–
CC(=O)N(CC(O)CO)c1c(I)c(C(=O)NCC(O)CO)c(I)c(C(=O)NCC(O)CO)c1I (centres unmarked) [D, Iohexol]	–	83 mg I/kg	67 mg I/kg	15 g I/kg	46%	6	5.5 mPa · s	still are not devoid of side effects	–
CC(=O)N(CCO)c1c(I)c(C(=O)NC(CO)C(O)CO)c(I)c(C(=O)NC(CO)C(O)CO)c1I (stereo not drawn) [Example 1, 5-[N-(2-Hydroxyethyl)acetylamino]-2,4,6-triiodoisophthalic acid bis(threo-1,3,4-trihydroxybut-2-yl)diamide]	–	–	130 mg I/kg	–	45%	7	–	–	Rat, pericerebral ED50 (Rat [1]; listed as A1): 171 mg I/kg; Mouse LD50 (Mouse; listed as A1): 17 g I/kg; general compatibility (in words) (Mouse; data of Table I): superior to the comparison compounds; Viscosity ([2]; listed as A1): 5.8 mPa · s; neural compatibility (in words) (Rat [6]): superior to the comparison compounds
CC(=O)Nc1c(I)c(C(=O)N[C@H]2C(O)O[C@H](CO)[C@@H](O)[C@@H]2O)c(I)c(N(C)C(C)=O)c1I (some centres unmarked) [B, Metrizamide]	–	62 mg I/kg	48 mg I/kg	14 g I/kg	48%	4	6.2 mPa · s	still are not devoid of side effects	–
C[C@H](O)C(=O)Nc1c(I)c(C(=O)NC(CO)CO)c(I)c(C(=O)NC(CO)CO)c1I [C, Iopamidol]	–	154 mg I/kg	116 mg I/kg	15 g I/kg	49%	5	4.5 mPa · s	still are not devoid of side effects	–
